PubChem BioAssay AID435029 (Sanford-Burnham Center for Chemical Genomics, 2010)
Active and inactive are the calls of the source. How the calls were made is not given here.

Test system: HIV Env-mediated cell-cell fusion, luminescence reporter
Assay: blockers of envelope-mediated cell fusion – luminescence reporter, SAR follow-up (AID 435029)

Compound `Cc1c2c(=O)n(-c3nc4ccccc4s3)nc-2cc(O)n1Cc1ccccc1` has an IC50 of 6.58 µM.

For `O=C(O)c1cc(NN=Cc2ccc(-c3ccccc3)cc2)ccc1Cl`, the IC50 was 10 µM.

In the case of `COc1ccc(C(=O)Oc2ccc(C=NNc3ccc(Cl)c(C(=O)O)c3)cc2OC)cc1`, the IC50 is reported as 13 µM.

Compound `COc1cc(C=NNc2ccc(Cl)c(C(=O)O)c2)ccc1OC(=O)c1ccccc1F` has an IC50 of 68 µM.

For `O=C(N/N=C/c1c(O)n(C2CCCCC2)c(=S)[nH]c1=O)c1ccccc1O`, the IC50 was 11.5 µM.

With `CCOC(=O)c1sc(N2C(=O)C(O)=C(C(=O)c3ccc(C)o3)C2c2cccc([N+](=O)[O-])c2)nc1C` (stereo not given) the IC50 was 5.1 µM.

In the case of `COc1cc(C=NNc2ccc(Cl)c(C(=O)O)c2)ccc1OC(=O)c1ccc(F)cc1`, the IC50 is reported as 30 µM.

In the case of `O=C(O)c1ccccc1N=Nc1c(O)[nH]c2ccc([N+](=O)[O-])cc12`, the IC50 is reported as > 100 µM (inactive).

`CC(C)(C)c1cc(-c2csc(Nc3ccccc3)[n+]2Cc2ccc(C(=O)O)cc2)cc(C(C)(C)C)c1O` showed an IC50 of 3.5 µM.

Work on `N#C/C(=C\c1ccc(O)c([N+](=O)[O-])c1)c1nc2ccccc2s1` yielded an IC50 of 4.65 µM.
